# Experimental data from PMC8760230, “Translational Development of a Zr-89-Labeled Inhibitor of Prostate-specific Membrane Antigen for PET Imaging in Prostate Cancer” (Molecular Imaging and Biology, 2021).
# Several values for one entry are separate records, joined by “and”; a condition that tells them apart may be missing. Equal values may be shown once. Entries after “also recorded” stand apart in the source; their conditions may differ. Read-outs that look alike come from different tables or passages of the source.
# Experiments:
# LNCaP tumor xenografts = conditions: for Tumor/blood ratio / Tumor/kidneys ratio / Tumor/liver ratio / Tumor/muscle ratio: LNCaP xenograft mice; for Biodistribution Blood / Biodistribution Bone / Biodistribution Heart / Biodistribution Intestine / Biodistribution Kidneys / Biodistribution LNCAP-tumor / Biodistribution Liver / Biodistribution Lung / Biodistribution Muscle / Biodistribution Prostate / Biodistribution Spleen / Biodistribution Thyroid: i.v. 30 pmol, n=5
# PSMA = biological target: T1, PSMA (Homo sapiens, UniProt Q04609); assay: Equilibrium dissociation constant Kd / Bmax, saturation binding on PSMA-positive LNCaP cells; conditions: Scatchard plots
# T1 construct: host or cells: LNCaP cells
# T1 sequence (Q04609 whole entry): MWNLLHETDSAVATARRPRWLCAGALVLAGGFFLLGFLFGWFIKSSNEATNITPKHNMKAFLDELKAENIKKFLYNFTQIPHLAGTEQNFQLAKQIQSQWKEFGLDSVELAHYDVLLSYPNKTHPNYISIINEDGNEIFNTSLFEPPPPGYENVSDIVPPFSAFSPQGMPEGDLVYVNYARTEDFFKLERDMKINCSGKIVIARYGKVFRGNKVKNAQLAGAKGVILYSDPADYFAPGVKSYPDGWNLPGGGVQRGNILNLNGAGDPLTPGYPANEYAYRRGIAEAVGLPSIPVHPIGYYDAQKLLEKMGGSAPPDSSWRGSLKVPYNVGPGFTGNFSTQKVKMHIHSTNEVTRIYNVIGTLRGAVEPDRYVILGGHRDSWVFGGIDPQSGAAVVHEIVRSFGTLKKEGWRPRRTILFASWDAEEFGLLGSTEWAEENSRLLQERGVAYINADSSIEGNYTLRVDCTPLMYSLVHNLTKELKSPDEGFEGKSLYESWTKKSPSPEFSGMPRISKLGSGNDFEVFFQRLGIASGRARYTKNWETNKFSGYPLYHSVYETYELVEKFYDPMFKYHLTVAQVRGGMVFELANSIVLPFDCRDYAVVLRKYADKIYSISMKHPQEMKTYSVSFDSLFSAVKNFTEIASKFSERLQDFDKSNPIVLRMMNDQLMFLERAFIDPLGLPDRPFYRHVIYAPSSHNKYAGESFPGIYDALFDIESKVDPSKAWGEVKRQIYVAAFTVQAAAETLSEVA
# Description: The equilibrium dissociation constant describing the interaction of the radiolabeled ligands with the PSMA binding sites was determined in PSMA-positive LNCaP cell lines (Cell Line Service, Eppelheim, Germany). LNCaP cells were seeded at a density of 10^6 cells/well on a 6-well plate (Corning, ME, USA) and incubated under 5% CO2 at 37 °C for 48 h with medium (minimum essential medium Eagle supplemented with 2 mM L-glutamine, 0.1 mM non-essential amino acids (NEAA), 1.0 mM sodium pyruvate, 10% fetal bovine serum, 100 U/ml penicillin, and 100 µg/ml streptomycin) (Lonza, Verviers, Belgium) in a humidified incubator (Thermo Heracell 150 CO2-Incubator, MA, USA). To determine the nonspecific binding, the medium was removed from selected wells, and 1 ml of a solution of 0.1 mM of 2-(phosphonomethyl)-pentanedioic acid (2-PMPA) in fresh medium was added. […] The plates were then incubated under 5% CO2, at 37 °C for 1 h. After that, the medium was removed and the cells incubated under the same incubation conditions for 3 h with different concentrations (0.25 nM, 2.5 nM, 5 nM, 10 nM, 25 nM, 50 nM, and 75 nM) of the radiotracer under investigation in 1 ml fresh medium.
# After 3 h, the cells were washed three times with 1 ml PBS, and the cells were finally lysed by adding 1 ml of 1 M NaOH and incubating them for 10 min at room temperature. All samples were measured with a gamma counter (Nuklear Medizintechnik Dresden Isomed 100, Dresden, Germany) and were decay-corrected. The equilibrium dissociation constant (Kd) and the maximum density of receptors (Bmax) were calculated by non-linear regression using GraphPad Prism 8.0.2 (GraphPad Software, San Diego, USA).
# LNCaP cells [1] = assay: Cellular uptake (specific cell binding) in LNCaP cells; assay type: cell-based; conditions: n=3
# Description: (§1) The cell binding determined in these experiments is the sum of specific and nonspecific cell binding. To determine the values for nonspecific cell binding and internalization, all experiments were additionally performed in the presence of 2-PMPA.
# (§2) The plates were incubated for 1 h; after which, 0.75 pmol of the radiotracer to be examined was added to 1 ml of fresh medium. The cells were incubated for 30 min, 1, 2, 3, and 5 h. At each time point, the supernatant was removed and the cells washed with 1 ml of PBS. To dissociate the receptor-bound radioligand, the cells were washed twice with 1 ml of a 0.1 M glycine buffer solution at pH 2.8 for 5 min. The 0.1 M glycine–HCl buffer dissociated all the surface-bound complexes. The cells were then washed with 1 ml of PBS, and the internalized fraction was determined by solubilizing the cells with 1 ml of 1 M NaOH and incubating them for 10 min at room temperature. The radioactivity collected from the culture medium, 0.1 M glycine (surface-bound), and 1 M NaOH (internalized fraction) was measured in a gamma counter and decay-corrected. Cell binding was calculated from the surface-bound (0.1 M glycine) and the internalized fraction (1 M NaOH). The internalized fraction was expressed as a percentage of cell binding (internalization to cell-bound radioactivity ratio). All cell uptake experiments were run in triplicate.
# LNCaP cells [2] = assay: Internalization in LNCaP cells; assay type: cell-based; conditions: n=3
# Description: as §1, §2
# prostate cancer relapse = assay: First-in-human PET/CT scan in a patient with biochemical recurrence of prostate cancer; conditions: for SUVmax left prostate lobe / SUVmax right prostate lobe: 93 MBq
# Description: The patient had given their written informed consent for PET imaging and the scientific evaluation of their data. All procedures were performed in accordance with the Institutional Review Board and the regulations of the regional authorities in Cologne. The kidney dose was estimated on the basis of two PET scans. The following assumptions were made for the estimation: Between time 0 (injection) and the first measuring point, the time-activity-curve follows a constant progression. All measuring points were integrated numerically using trapezoidal approximation. From the last measuring point to infinity, a mono-exponential function was fitted and integrated. As the effective half-life could not be accurately determined from two measurement points, the physical half-life of Zr-89 was used instead.
# LNCaP tumor xenograft = assay: Small-animal PET in mice bearing an LNCaP tumor xenograft, with and without blocking by 2-PMPA
compound,measurement,setting,value
"CC(=O)N1CCCCCNC(=O)CCC(=O)N2CCCCCNC(=O)CCC(=O)N(CCCCCNC(=O)CCC(=O)NCC3CCC(C(=O)NC(Cc4ccc5ccccc5c4)C(=O)NCCCCC(NC(=O)NC(CCC(=O)O)C(=O)O)C(=O)O)CC3)[O][89Zr+]([O]1)[O]2 (centres unmarked) [[^89Zr]Zr-PSMA-DFO, [^89Zr]Zr-N-sucDf-AMCHA-2Nal-EuK]",Tumor/blood ratio,LNCaP tumor xenografts; 2 h p.i.,183 ± 42
same,Tumor/kidneys ratio,LNCaP tumor xenografts; 2 h p.i.,0.31 ± 0.06
same,Tumor/liver ratio,LNCaP tumor xenografts; 2 h p.i.,27.5 ± 3.2
same,Tumor/muscle ratio,LNCaP tumor xenografts; 2 h p.i.,534 ± 62
same,Biodistribution Blood,LNCaP tumor xenografts; 2 h p.i.,0.14 ± 0.02 %ID/g
same,Biodistribution Bone,LNCaP tumor xenografts; 2 h p.i.,0.15 ± 0.04 %ID/g
same,Biodistribution Heart,LNCaP tumor xenografts; 2 h p.i.,0.11 ± 0.05 %ID/g
same,Biodistribution Intestine,LNCaP tumor xenografts; 2 h p.i.,0.65 ± 0.15 %ID/g
same,Biodistribution Kidneys,LNCaP tumor xenografts; 2 h p.i.,86.7 ± 18.7 %ID/g
same,Biodistribution LNCAP-tumor,LNCaP tumor xenografts; 2 h p.i.,26.3 ± 5.3 %ID/g
same,Biodistribution Liver,LNCaP tumor xenografts; 2 h p.i.,0.95 ± 0.15 %ID/g
same,Biodistribution Lung,LNCaP tumor xenografts; 2 h p.i.,0.5 ± 0.04 %ID/g
same,Biodistribution Muscle,LNCaP tumor xenografts; 2 h p.i.,0.05 ± 0.02 %ID/g
same,Biodistribution Prostate,LNCaP tumor xenografts; 2 h p.i.,0.15 ± 0.04 %ID/g
same,Biodistribution Spleen,LNCaP tumor xenografts; 2 h p.i.,0.49 ± 0.07 %ID/g
same,Biodistribution Thyroid,LNCaP tumor xenografts; 2 h p.i.,0.18 ± 0.03 %ID/g
same,Tumor/blood ratio,LNCaP tumor xenografts; 4 h p.i.,180 ± 61
same,Tumor/kidneys ratio,LNCaP tumor xenografts; 4 h p.i.,0.55 ± 0.01
same,Tumor/liver ratio,LNCaP tumor xenografts; 4 h p.i.,29.6 ± 5.1
same,Tumor/muscle ratio,LNCaP tumor xenografts; 4 h p.i.,297 ± 62
same,Biodistribution Blood,LNCaP tumor xenografts; 4 h p.i.,0.13 ± 0.04 %ID/g
same,Biodistribution Bone,LNCaP tumor xenografts; 4 h p.i.,0.13 ± 0.03 %ID/g
same,Biodistribution Heart,LNCaP tumor xenografts; 4 h p.i.,0.12 ± 0.03 %ID/g
same,Biodistribution Intestine,LNCaP tumor xenografts; 4 h p.i.,0.54 ± 0.10 %ID/g
same,Biodistribution Kidneys,LNCaP tumor xenografts; 4 h p.i.,41.3 ± 2.37 %ID/g
same,Biodistribution LNCAP-tumor,LNCaP tumor xenografts; 4 h p.i.,22.8 ± 1.5 %ID/g
same,Biodistribution Liver,LNCaP tumor xenografts; 4 h p.i.,0.79 ± 0.17 %ID/g
same,Biodistribution Lung,LNCaP tumor xenografts; 4 h p.i.,0.12 ± 0.03 %ID/g
same,Biodistribution Muscle,LNCaP tumor xenografts; 4 h p.i.,0.08 ± 0.02 %ID/g
same,Biodistribution Prostate,LNCaP tumor xenografts; 4 h p.i.,1.12 ± 0.16 %ID/g
same,Biodistribution Spleen,LNCaP tumor xenografts; 4 h p.i.,0.61 ± 0.09 %ID/g
same,Biodistribution Thyroid,LNCaP tumor xenografts; 4 h p.i.,0.13 ± 0.02 %ID/g
same,Tumor/blood ratio,LNCaP tumor xenografts; 24 h p.i.,309 ± 89
same,Tumor/kidneys ratio,LNCaP tumor xenografts; 24 h p.i.,1.0 ± 0.3 and 1.02 ± 0.28
same,Tumor/liver ratio,LNCaP tumor xenografts; 24 h p.i.,40.0 ± 1.1
same,Tumor/muscle ratio,LNCaP tumor xenografts; 24 h p.i.,450 ± 38
same,Biodistribution Blood,LNCaP tumor xenografts; 24 h p.i.,0.05 ± 0.01 %ID/g
same,Biodistribution Bone,LNCaP tumor xenografts; 24 h p.i.,0.18 ± 0.02 %ID/g
same,Biodistribution Heart,LNCaP tumor xenografts; 24 h p.i.,0.09 ± 0.02 %ID/g
same,Biodistribution Intestine,LNCaP tumor xenografts; 24 h p.i.,0.25 ± 0.08 %ID/g
same,Biodistribution Kidneys,LNCaP tumor xenografts; 24 h p.i.,15.4 ± 4.1 %ID/g
same,Biodistribution LNCAP-tumor,LNCaP tumor xenografts; 24 h p.i.,14.9 ± 1.2 %ID/g
same,Biodistribution Liver,LNCaP tumor xenografts; 24 h p.i.,0.37 ± 0.03 %ID/g
same,Biodistribution Lung,LNCaP tumor xenografts; 24 h p.i.,0.04 ± 0.01 %ID/g
same,Biodistribution Muscle,LNCaP tumor xenografts; 24 h p.i.,0.03 ± 0.01 %ID/g
same,Biodistribution Prostate,LNCaP tumor xenografts; 24 h p.i.,0.50 ± 0.01 %ID/g
same,Biodistribution Spleen,LNCaP tumor xenografts; 24 h p.i.,0.36 ± 0.08 %ID/g
same,Biodistribution Thyroid,LNCaP tumor xenografts; 24 h p.i.,0.05 ± 0.01 %ID/g
same,In vivo stability (no time-dependent increase in Zr-89 accumulation in bone),"LNCaP tumor xenografts; mice, 24 h or 48 h p.i., biokinetics and small-animal PET",convincing in vivo stability
same,Bmax (maximum achievable concentration on 10^6 tumor cells),PSMA,1428 ± 42 fmol/10^6 cells
same,Specific binding in LNCaP cells as percentage of total activity,LNCaP cells [1]; 0.5 h,29.1±2.1%
same,Specific binding in LNCaP cells as percentage of total activity,LNCaP cells [1]; 1 h,38.5±2.3%
same,Specific binding in LNCaP cells as percentage of total activity,LNCaP cells [1]; 2 h,46.5±1.3%
same,Specific binding in LNCaP cells as percentage of total activity,LNCaP cells [1]; 3 h,48.8±1.0%
same,Specific binding in LNCaP cells as percentage of total activity,LNCaP cells [1]; 5 h,49.4±1.3%
same,Specific internalized activity as percentage of specific cell-bound activity,LNCaP cells [2]; 0.5 h,32.7±4.1%
same,Specific internalized activity as percentage of specific cell-bound activity,LNCaP cells [2]; 1 h,39.8±0.4%
same,Specific internalized activity as percentage of specific cell-bound activity,LNCaP cells [2]; 2 h,48.0±3.4%
same,Specific internalized activity as percentage of specific cell-bound activity,LNCaP cells [2]; 3 h,50.0±0.6%
same,Specific internalized activity as percentage of specific cell-bound activity,LNCaP cells [2]; 5 h,61.7±3.4%
same,Period over which the radioligand was found stable,"37 °C, PBS and human serum, TLC, HPLC in PBS, listed as Zr-89-radioligand",7 days
same,Radiochemical purity remaining on storage,storage in aqueous solution for 7 days,> 99%
same,Overall effective dose (ICRP 60),prostate cancer relapse,0.11 mSv/MBq
same,SUVmax left prostate lobe,prostate cancer relapse; 48 h p.i.,9.47
same,SUVmax right prostate lobe,prostate cancer relapse; 48 h p.i.,13.25
same,SUVmax left prostate lobe,prostate cancer relapse; 72 h p.i.,7.14
same,SUVmax right prostate lobe,prostate cancer relapse; 72 h p.i.,13.05
same,Kidney dose,prostate cancer relapse; estimated from two PET scans,2.8 mGy/MBq
same,Visibility of LNCaP tumor xenograft in PET,"LNCaP tumor xenograft; 48 h p.i., 10 MBq",still clearly visible; also recorded: remained clearly visible
same,Radioactivity in the bladder,"LNCaP tumor xenograft; mice, 48 h after injection",no detectable radioactivity
same,Share of renal radioactivity due to specific binding,"LNCaP tumor xenograft; mouse, blocking experiment with 2-PMPA",approximately two-thirds
